1 molecule from patent publication US11674952B2, “Embryonic cell-based therapeutic candidate screening systems, models for Huntington's Disease and uses thereof” (The Rockefeller University, priority 2016, dated 2023) can be followed below.

The assay concerns RUES2-Q150 cells. Kind of assay: Germ layer micropattern screen: BMP4-differentiated hESC colonies, reversion of the HD-dependent micropattern signature. The class given is cell-based, human. The conditions noted are these: kinetin 1 μM for 2-24 hours prior to BMP4 addition. The source says:
Micropattern cultures were established according to methods described in Warmflash et al., Nature Methods. 2014 August: 11(8):847-854. This procedure is briefly described in Materials and Methods.
Cells confined to circular micropatterns and differentiated with BMP4 produce an ordered array of germ layers along the radial axis of the colony. This order results from self-organized signaling which confines response to the BMP4 to the colony border while inducing a broader gradient of Activin/Nodal signaling to pattern mesendodermal fates. Control of fates is established from the border of the colony so that as colony size is reduced the central fates are lost. Thus, given minimal geometric and signaling cues, hESCs will self-organize to generate embryonic patterns such as those of the human gastrula.
The Applicants next applied micropattern technology to the isogenic hESC lines for Huntington's Disease. […]
The spatial expression of germ markers Sox2, Bra, and Cdx2 was compared between RUES2 and RUES2-Q150 cells (FIG. 6). […] Tri dimensional geometry was evaluated by first generating images of cells at different focal planes known as “Z-stacks”. […]

The structures appear in SMILES notation. Entries after “also recorded” stand apart in the source; their conditions may differ.

Turning to `c1coc(CNc2ncnc3[nH]cnc23)c1` [kinetin], the “rescue of HD-dependent micropattern signature (SOX2+ area; Sox2 and Bra/Cdx2 territories)” value is recorded as “reduced or reverted HD-dependent micropattern signature; also recorded: restore the HD-dependent micropattern signature; also recorded: at least partially rescued; also recorded: partial but significant rescue of phenotype”; the “rescue of cell number phenotype (total number of cells per micropattern, cell density)” value was “restored the cell density; also recorded: restored the cell number phenotype; also recorded: rescues the cell number phenotype”.
